Legend:
[1] = tested on: B. subtilis PY79; assay: Crystal of biotin analog on plates, growth inhibition; format: cell-based; conditions: for Growth inhibition around crystal, zones of clearing: EMS-mutagenized PY79, TBAB plates, overnight at 37° C.; for Zones of killing around crystal: PY79, EMS1, EMS2 on TBAB, BIOS or MIN plates, after 24 h
Source text: Biotin analogs were used to select for strains that were deregulated for biotin production. Among the mutations sought were those in a potential homolog of the E. coli birA gene. However, it is expected that selection for resistance to biotin analogs can also yield strains with mutations in the operator site(s) of birA, or in genes encoding functions responsible for the transport of the analogs into the cell. Analog-resistant mutants can also contain a gene or genes that encode enzymes resistant to inhibitors including, but not limited to, feedback inhibitors. Several biotin analogs (homobiotin, α-dehydrobiotin, and 5(2-thienyl)pentanoic acid) were obtained from Nippon Roche KK (Kanagsua, Japan). Mutagenized cells of B. subtilis were plated on TBAB (Difco Tryptose Blood Agar Base, cat. no. 0232-01-9) plates containing a crystal of each biotin analog.
An additional 27 mutants were selected subsequently in similar plate screenings for their resistance to the analogs homobiotin (HB) and α-dehydrobiotin (α-DB). For this latter selection, B. subtilis PY79 cultures were subjected to mutagenesis with EMS in two independent experiments. […] Overnight cultures of PY79, EMS1, and EMS2 grown in rich medium were plated on TBAB (rich), BIOS (biotin free) or MIN (glucose-minimal) plates and a crystal of homobiotin or α-dehydrobiotin was placed on each of the plates. […] Individual colonies were picked from homobiotin plates or α-dehydrobiotin plates and restreaked on BIOS plates containing α-dehydrobiotin or homobiotin.

[2] = tested on: bioW-lacZ translational fusion; assay: bioW-lacZ translational fusion integrated at the bio locus, β-galactosidase liquid ONPG assay; format: cell-based, B. subtilis
Source text: A translational lacZ fusion was constructed to confirm the activity and regulation of the putative promoter and regulatory region, and to assess the relative level of expression of the B. subtilis biotin operon in a variety of contexts. This was accomplished by inserting a 3.1 kb BamHI-BglII fragment containing a promoter-less lacZ coding region into the BamHI site of pBIO350, to give pBIO397 and pBIO398.
To test the bioW-lacZ fusion for biotin-regulated expression in B. subtilis, Bio^+ partial diploids were constructed. The cat cassette was cloned into pBIO397 using the single SmaI site located within the polylinker region downstream from the lacZ gene. One recombinant plasmid, pBIO397cat, with the cat gene oriented in the same direction as the translational fusion, was used to generate Bio^+ partial diploids. Competent cells of the prototrophic B. subtilis strain PY79 were transformed with pBIO397cat plasmid DNA selecting for Cm^r. Transformants should only arise by recombination into the chromosome. This leaves an intact copy of the bio operon, allowing activity of the lac fusion to be assessed in the absence of added biotin.
The promoter of the BamHI to PstI fragment cloned in pBIO350 is regulated by biotin. Two Cm^r Bio^+ partial diploids containing the bioW-lacZ fusion were tested for β-galactosidase activity in biotin-free medium in the presence or absence of biotin (100 μg/liter). In liquid ONPG assays, both strains were regulated specifically by biotin. The level of β-galactosidase was repressed in the presence of biotin and induced in its absence to 24 to 85-fold higher specific activity (Table 3). This strain with the bioW::lacZ fusion integrated at the bio operon has also been used to isolate new biotin analog-resistant mutants (see below) on X-gal indicator plates.

[3] = tested on: SPβ::bioW-lacZ; assay: SPβ-borne single-copy bioW-lacZ translational fusion, β-galactosidase assay; format: cell-based, B. subtilis
Experimental: Other strains, in addition to the lacZ fusion strain of Example IVA, can be constructed for deciphering biotin regulatory mechanisms. For example, Applicants recognized that insertion of the plasmid-borne bioW-lacZ fusion into the chromosome causes technical problems because the integrated plasmid amplifies in copy number. Thus the expression of the bioW-lacZ fusion at single copy-number and at a site distinct from the bio operon was tested by introducing the fusion into a modified SPβ specialized transducing phage (see, e.g., Zuber et al., J. Bacteriol. 169:2223-2230, 1987, hereby incorporated by reference).
Two isolates of PY79 (SPβ::bioW-lacZ) and BI421 (SPβ::bioW-lacZ) were assayed for β-galactosidase activity as described above.
Biotin regulation was also examined in two independently isolated biotin analog-resistant mutants. HB3 contains a spontaneous birA mutation and α-DB9 contains an α-dehydrobiotin resistant mutation unlinked to either bio or birA. These strains were transduced, grown, and assayed as described above, except that α-DB9 (SPβ::bioW-lacZ) was assayed during mid-exponential growth.

[4] = tested on: B. subtilis PY79 and azelaic acid resistant mutants; assay: Growth inhibition by azelaic acid, minimal agar; format: cell-based; conditions: addition of 1 μg/l biotin
Source text: Azelaic acid, a straight chain C9 dicarboxylic acid, is a homolog of pimelic acid and is thought to be an intermediate in the conversion of oleic acid to pimelic acid (see Ohsugi and Inoue (1981) Agric. Biol. Chem. 45: 2355-2356, hereby incorporated by reference).
Seven spontaneous mutants that outgrew the background of PY79 on 2 g/l Azelaic acid were isolated. The resistance to azelaic acid appeared to be a stable trait in all but one case (see below). The seven mutants were provisionally named PA1-PA7 (PY79 Azelaic acid resistant). PA1 through PA7 were grown in test tubes in VY medium, and biotin production was assayed using E. coli indicator strains (Table 15). The mutants fell into two classes, those that yielded more biotin than PY79 (PA5, PA6) and those that were similar to PY79 (PA1, 2, 3, and 7). PA4 appeared to be either unstable or not a true mutant and was dropped from further study. Applicants also noticed that the mutants fell into two classes with respect to colony size on minimal agar with 2 g/l azelaic acid, and that these two classes corresponded to the two classes of biotin producers (Table 11). The mutants with the most biotin in the supernatant (PA5 and PA6) gave small colonies, while the biotin non-secreters, PA1, 2, 3, and 7, gave large colonies. PA1 and PA3 secreted a compound that cross-fed PY79 (i.e., reversed the azelaic acid inhibition of PY79) on minimal plates containing 2 g/l azelaic acid.

[5] = tested on: PY79 bioI::cat; assay: Growth of bioI::cat mutants on biotin-free medium with supplements; format: cell-based, B. subtilis; conditions: biotin 33 μg/ml
[6] = tested on: B. subtilis birA/azl^r strains; assay: Screen of parents and Trp+ transductants for homobiotin resistance; format: cell-based; set-up: key to Homobiotin resistant/sensitive: R: resistant; S: sensitive
Source text: The birA mutation from either HB3 or α-DB16 was introduced into either PA3 or PA6 by a two step transduction process. First, PA3 and PA6 were made Trp^− by transduction with trpE::Tn917lac (Perkins and Youngman, (Proc. Nat'l Acad. Sci USA 83:140-144 (1986)) selecting for erythromycin resistance. The birA mutations were transduced from HB3 or α-DB16, selecting for Trp^+. Parents and Trp^+ transductants were screened for homobiotin resistance and azelaic acid resistance. PA6 was homobiotin sensitive, so double mutants could be identified among Trp^+ transductants by screening for homobiotin resistant colonies. Only about 60% of Trp^+ transductants were also homobiotin resistant (this may be due to Tn917 distortion of the map distance between birA and trpE normally 90% linkage by transduction). PA3 was resistant to homobiotin, so direct identification of double mutants was not possible. However, 60% of the transductants were double mutants as judged by increased biotin secretion, see below.

O=C(O)CCCCc1cccs1 [5(2-thienyl) pentanoic acid, 5(2-thienyl)pentanoic acid]
Growth inhibition around crystal, zones of clearing [1]: inhibited the growth

O=C(O)CCCC[C@@H]1SC[C@@H]2NC(=O)N[C@@H]21 [Biotin]
Fold Increase of β-galactosidase activity, −Biotin over +Biotin (100 μg/l) ([2]; PY79(bioW-lacZ)12A, Late Log): 24 Fold
β-galactosidase activity +Biotin (100 μg/l) ([2]; PY79(bioW-lacZ)12A, Late Log (OD600 0.7-0.8)): 0.47 Miller Units
Fold Increase of β-galactosidase activity, −Biotin over +Biotin (100 μg/l) ([2]; PY79(bioW-lacZ)12A, Late Stationary): 53 Fold
β-galactosidase activity +Biotin (100 μg/l) ([2]; PY79(bioW-lacZ)12A, Late Stationary (OD600 1.4-1.6)): 0.13 Miller Units
Fold Increase of β-galactosidase activity, −Biotin over +Biotin (100 μg/l) ([2]; PY79(bioW-lacZ)12A, Stationary): 65 Fold
β-galactosidase activity +Biotin (100 μg/l) ([2]; PY79(bioW-lacZ)12A, Stationary (OD600 1.1-1.4)): 0.17 Miller Units
Fold Increase of β-galactosidase activity, −Biotin over +Biotin (100 μg/l) ([2]; PY79(bioW-lacZ)14A, Late Log): 33 Fold
β-galactosidase activity +Biotin (100 μg/l) ([2]; PY79(bioW-lacZ)14A, Late Log (OD600 0.7--0.8)): 0.64 Miller Units
Fold Increase of β-galactosidase activity, −Biotin over +Biotin (100 μg/l) ([2]; PY79(bioW-lacZ)14A, Late Stationary): 85 Fold
β-galactosidase activity +Biotin (100 μg/l) ([2]; PY79(bioW-lacZ)14A, Late Stationary (OD600 1.213-1.320)): 0.10 Miller Units
Fold Increase of β-galactosidase activity, −Biotin over +Biotin (100 μg/l) ([2]; PY79(bioW-lacZ)14A, Stationary): 82 Fold
β-galactosidase activity +Biotin (100 μg/l) ([2]; PY79(bioW-lacZ)14A, Stationary (OD600 1.1-1.4)): 0.15 Miller Units
Fold Increase of β-galactosidase activity, −Biotin over +Biotin (100 μg/l) ([3]; BI421 (SPβ::bioW-lacZ)/#1 (birA)): 1.5 Fold
β-galactosidase activity +Biotin (100 μg/l) ([3]; BI421 (SPβ::bioW-lacZ)/#1 (birA), OD600 1.00-0.936): 0.67 Miller Units
Fold Increase of β-galactosidase activity, −Biotin over +Biotin (100 μg/l) ([3]; BI421 (SPβ::bioW-lacZ)/#3 (birA)): 0.9 Fold
β-galactosidase activity +Biotin (100 μg/l) ([3]; BI421 (SPβ::bioW-lacZ)/#3 (birA), OD600 1.07-0.92): 0.96 Miller Units
Fold Increase of β-galactosidase activity, −Biotin over +Biotin (100 μg/l) ([3]; HB3 (SPβ::bioW-lacZ)/#1 (birA)): 1.3 Fold
β-galactosidase activity +Biotin (100 μg/l) ([3]; HB3 (SPβ::bioW-lacZ)/#1 (birA), OD600 1.068-1.076): 0.24 Miller Units
Fold Increase of β-galactosidase activity, −Biotin over +Biotin (100 μg/l) ([3]; HB3 (SPβ::bioW-lacZ)/#3 (birA)): 0.8 Fold
β-galactosidase activity +Biotin (100 μg/l) ([3]; HB3 (SPβ::bioW-lacZ)/#3 (birA), OD600 1.213-1.320): 0.18 Miller Units
β-galactosidase repressed in the presence of biotin, induced in the absence of biotin ([3]; PY79 (SPβ::bioW-lacZ)): 9-15 fold
Fold Increase of β-galactosidase activity, −Biotin over +Biotin (100 μg/l) ([3]; PY79 (SPβ::bioW-lacZ)/#1): 15 Fold
β-galactosidase activity +Biotin (100 μg/l) ([3]; PY79 (SPβ::bioW-lacZ)/#1, OD600 1.04-1.08): 0.04 Miller Units
Fold Increase of β-galactosidase activity, −Biotin over +Biotin (100 μg/l) ([3]; PY79 (SPβ::bioW-lacZ)/#3): 9 Fold
β-galactosidase activity +Biotin (100 μg/l) ([3]; PY79 (SPβ::bioW-lacZ)/#3, OD600 0.988-0.960): 0.06 Miller Units
Fold Increase of β-galactosidase activity, −Biotin over +Biotin (100 μg/l) ([3]; α-D89 (SPβ::bioW-lacZ)/#1): 9.2 Fold
β-galactosidase activity +Biotin (100 μg/l) ([3]; α-D89 (SPβ::bioW-lacZ)/#1, OD600 0.892-0.528, one measurement): 0.18 Miller Units
Fold Increase of β-galactosidase activity, −Biotin over +Biotin (100 μg/l) ([3]; α-D89 (SPβ::bioW-lacZ)/#3): 12.3 Fold
β-galactosidase activity +Biotin (100 μg/l) ([3]; α-D89 (SPβ::bioW-lacZ)/#3, OD600 1.344-1.200): 0.11 Miller Units
Reversal of azelaic acid growth inhibition of wild-type B. subtilis [4]: reversed
Growth of bioI::cat insertion colonies [5]: grew to wild-type levels

O=C(O)/C=C/CCC1SCC2NC(=O)NC21 (stereo not drawn) [α-dehydrobiotin]
Growth inhibition around crystal, zones of clearing [1]: inhibited the growth
Zones of killing around crystal [1]: zones of killing were observed

O=C(O)CCCCC[C@@H]1SC[C@@H]2NC(=O)N[C@@H]21 [Homobiotin, homobiotin]
Zones of killing around crystal [1]: zones of killing were observed
Homobiotin resistant/sensitive ([6]; parent PA3, birA donor HB3, isolate 1): R
Homobiotin resistant/sensitive ([6]; parent PA3, birA donor HB3, isolate 2): R
Homobiotin resistant/sensitive ([6]; parent PA3, birA donor α-DB16, isolate 1): R
Homobiotin resistant/sensitive ([6]; parent PA6, birA donor HB3, isolate 2): R
Homobiotin resistant/sensitive ([6]; parent PA6, birA donor HB3, isolate 6): R
Homobiotin resistant/sensitive ([6]; parent PA6, birA donor α-DB16, isolate 8): R
Homobiotin resistant/sensitive ([6]; parent PA6, birA donor α-DB16, isolate 14): R
Homobiotin resistant/sensitive ([6]; strain HB3): R
Homobiotin resistance of PA3 ([6]; strain PA3): resistant
Homobiotin resistant/sensitive ([6]; strain PA3): R
Homobiotin resistant/sensitive ([6]; strain PA6): S
Homobiotin sensitivity of PA6 ([6]; strain PA6): sensitive
Homobiotin resistant/sensitive ([6]; strain PY79): S
Homobiotin resistant/sensitive ([6]; strain α-DB16): R

— patent publication US6841366B1, “Biotin biosynthesis in bacillus subtilis” (DSM IP Assets B.V., priority 1993, dated 2005)
